Results on one molecule are retold here after US20230228744A1, “DRY EYE DISEASE BIOMARKERS AND THEIR USE FOR TREATMENT” (Aldeyra Therapeutics, Inc., priority 2020, published 2023).

Holding throughout (format): in vivo, human
For data set [1], the system named is 4-hydroxynonenal protein adducts (HNE) in tears. The data set is described as follows: Phase 2/3 (TRANQUILITY) run-in cohort, ELISA of HNE-protein adducts in tears before and after dosing. Conditions: single doses of 0.25% reproxalap, average of two doses (Day 1 first dose, Day 2 post chamber), n=9; vehicle: increase of 32 pg/mL (n=7). The method, then:
[table] Tear RASP levels will be assessed via MMRM of change from pre to post dose on Day 1 and Day 2, with baseline (pre-dose) scores as a covariate, and dose and test article group as factors. Secondary Endpoints: • Visual analog scale eye dryness score assessed over 24 hours after first dose on Day 1, and over 90 minutes in CAE® (Key Secondary Symptom Endpoint) • Ora Calibra® Ocular Discomfort Scale assessed over 24 hours after first dose on Day 1, and over 90 minutes in CAE® • Ocular Discomfort & 4-Symptom Questionnaire assessed over 24 hours after first dose on Day 1, and before and after CAE® • Ora Calibra® Conjunctival Allergen Challenge Ocular Itching Scale assessed over 24 hours after first dose on Day 1, and before and after CAE® • Schirmer's Test change from baseline before and after the final dose on Day 1 • Change in tear RASP levels before and after Dose 1 and 2 on Day 1 and Dose 3 on Day 2. Conjunctival redness over 24 hours after first dose on Day 1. Visit 2 (Day 1, Baseline and In-Office Dosing) • Medical/Medication Update • Adverse Event Query • Visual Acuity (ETDRS) • Slit Lamp Biomicroscopy • Symptom Questionnaires • a. Ocular Discomfort & 4-Symptom Questionnaire • b. […] Ora Calibra® Conjunctival Allergen Challenge Ocular Itching Scale • Slit Lamp Biomicroscopy • Intraocular Pressure • Dilated Exam • Study Exit Data for the run-in cohort was obtained and analyzed. […]
(ELISA stands for enzyme-linked immunosorbent assay.)

Data set [2] has as its system patients. The data set is described as follows: Overall clinical safety experience of topical ocular reproxalap.
Data set [3] has as its system dry eye disease patients. The data set is described as follows: Phase 3 clinical trial (RENEW-Part 1), VAS ocular dryness score over 12-week chronic treatment. Conditions: 0.25% reproxalap, 12-week treatment, as early as one week after treatment initiation. From the text:
Treatment Difference of induction-maintenance dosing, defined as the difference between the changes from baseline for the evaluated drug vs. vehicle (LS Mean Difference ±95% CI). Ocular Dryness Score co-primary endpoint assessed in pre-specified patient population having an OD4S dryness baseline score of ≥3 (N=170). […] […] Source: Reproxalap RENEW-Part 1 clinical trial results and TRANQUILITY Run-In Cohort initial results. VAS=Visual Analog Scale; OD4S=Ocular Discomfort & 4-Symptom; CAC=Conjunctival Allergen Challenge; MMRM=Mixed Effect Model Repeated Measures.

As for `CC(C)(O)c1nc2ccc(Cl)cc2cc1N` [reproxalap, Reproxalap], the “average decline of HNE levels in tears, pre-dose to post-dose” value in data set [1] is listed as 1018 pg/mL. The “most commonly reported adverse event in clinical trials” value in data set [2] (over 1,100 patients) was “mild instillation site irritation”. Besides, in data set [2] (studied in over 1,100 patients), the observed safety concerns result is “no observed safety concerns”. Besides, the “symptom improvements over vehicle (VAS ocular dryness score and multiple symptoms)” value in data set [3] is “statistically significant symptom improvements”.
